In experiment [1] the test system is autologous LCL. In words: Cytolytic activity: apoptosis of autologous LCL (Annexin V). Format: cell-based, human. To be noted: peptide-loaded labelled autologous LCL co-cultured with P4-specific CD4+ T cell lines from patients MS017 (S7), MS026 (S12), MS028 (S11) and MS029 (S9). Here is the method: (§1) CD14+ monocytes were isolated from these PBMCs by performing positive immunomagnetic separation with CD14 microbeads (Miltenyi Biotec, 130-050-201) according to the supplier recommendations. CD14+ monocytes were cultured for six days and maturated to generate autologous dendritic cells (mDC). CD19+ B cells were isolated from the CD14- PBMCs fraction by performing positive immunomagnetic separation with CD19 microbeads (Miltenyi Biotec, 130-050-301) according to the supplier recommendations. CD19+ B cells were cultured and immortalized with EBV to generate autologous lymphoblastoid cell lines (LCL).
The cytolytic activity of the antigen specific CD4+ T cells was evaluated by quantifying the apoptosis induced on LCL used as antigen presenting cells. Fluorescently labelled autologous LCL, loaded or not with the peptide (P4), were overnight co-cultured at resting state with specific CD4+ T cells, and LCL apoptosis was quantified by flow cytometry through Annexin V staining. Considering the apoptosis percentage of unloaded LCL, used as control, the percentage of specific apoptosis was calculated as follows

Experiment [2] concerns CD4+ T cells of patients with multiple sclerosis. In words: Cytokine secretion in CD4+ T cell culture supernatants (LEGENDplex Human Th Panel). Format: cell-based. The text has this:
(§2) Naïve CD4+ T cells were also purified from the CD14- PBMCs fraction by performing negative immunomagnetic separation with naïve CD4+ T cell isolation kit (Miltenyi Biotec, 130-094-131) according to the supplier recommendations. Naïve CD4+ T cells were co-cultured with autologous mDC or LCL in the presence of P2 and P4 peptides. The CD4+ T cells were re-stimulated periodically, about every 10-12 days.
The ability of the peptides to induce cytokines secretion in CD4+ T cells culture supernatants was evaluated by flow cytometry analysis after overnight co-culture at resting state with autologous mDC without (no peptide) or with the peptides (P2 or P4). Supernatants were analyzed with the LEGENDplex Human Th Panel (13-plex) (BioLegend, 740721) according to the supplier recommendations.

Experiment [3] has the same test system. Description: Generation of antigen specific CD4+ T cells, CD154 (CD40L) expression by flow cytometry. The following applies: for specific induction of effector cells (CD3+CD4+CD154+): overnight co-culture. Format: cell-based, human. Here is the method: PBMCs were isolated from blood samples of patients with multiple sclerosis treated by dimethyl fumarate (DMF) on Lymphoprep density gradients.
as §1, §2
(§3) The ability of the peptides to generate antigen specific CD4+ T cells was evaluated by flow cytometry analysis of the TCR induced surface activation marker CD154 (CD40L) expression after overnight co-culture at resting state with autologous LCL without (no peptide) or with the peptides (P2 or P4). The surface expression of the lytic marker Fas ligand (CD178) was also evaluated by flow cytometry analysis after overnight co-culture at resting state with autologous LCL without (no peptide) or with the peptide (P4).
(In general: In flow cytometry, cells or beads pass a laser one at a time.)

Experiment [4] concerns Experimental Auto-Immune Encephalomyelitis (EAE). Description: Therapeutic administration in MOG35-55-induced EAE. It counts as in vivo. The following applies: 30 μg s.c. with alum, days 4, 9, 14, 19, vs Saline group. Here is the method: The study used a total of 48 female C57BL/6 mice (Taconic Biosciences, 9 weeks old on Day 0). Mice were acclimated for 7 days prior to the first injection. Mice were assigned to groups in a balanced manner to achieve similar average weight across the groups at the start of the study.
Dosing of all mice was performed once on each of the days indicated in Table 2, s.c., at a volume of 0.05 mL/site, each mouse receiving injection at two sites, for a total of 0.1 mL/mouse/dosing day. IMCY-0189 or P4 peptide total dose was 30 μg per administration.
Lyophilized immunogenic peptide IMCY-0189 with the sequence […] (SEQ ID NO: 260), comprising an oxidoreductase motif HCPYC (SEQ ID NO: 24), a linker GW, a murine Myelin Oligodendrocyte Glycoprotein (MOG35-55) MHCII T cell epitope […] (SEQ ID NO: 261) and a flanking sequence HLYR (SEQ ID NO: 262) (Smart Bioscience) was solubilized immediately before use. Lyophilized IMCY-0189 was thawed at room temperature for 10 minutes, resuspended in Na Acetate buffer 50 mM NaCl 0.9% pH 5.4 and incubated at room temperature for 10 minutes. Reconstituted peptide was then mixed with Imject™ Alum Adjuvant before injection.
Lyophilized immunogenic peptide P4 with the sequence […] (SEQ ID NO: 27), comprising an oxidoreductase motif KHCPYC (SEQ ID NO: 50), a linker VRY, a human Myelin Oligodendrocyte Glycoprotein (MOG201-212) MHCII T cell epitope […] (SEQ ID NO: 2) and a flanking sequence TLFKK (SEQ ID NO: 263) (Smart Bioscience) was solubilized immediately before use. Lyophilized P4 was thawed at room temperature for 10 minutes, resuspended in Na Acetate buffer 50 mM NaCl 0.9% pH 5.4 and incubated at room temperature for 10 minutes. Reconstituted peptide was then mixed with Imject™ Alum Adjuvant before injection.
EAE was induced in all mice as follows: • Day 0, Hour 0—Immunization with a peptide corresponding to the amino acids 35-55 of MOG (MOG35-55)/CFA • Day 0, Hour 2—Injection of pertussis toxin • Day 1, Hour 0—2nd injection of pertussis toxin (24 hours after initial immunization).
Mice were injected subcutaneously at two sites in the back with the emulsion component (containing MOG35-55) of Hooke Kit™ MOG35-55/CFA Emulsion PTX, catalog number EK-2110 (lot #131, Hooke Laboratories, Lawrence MA). One site of injection was in the area of upper back, approximately 1 cm caudal of the neck line. The second site was in the area of lower back, approximately 2 cm cranial of the base of the tail. The injection volume was 0.1 mL at each site. Each mouse received 200 μg of MOG35-55.
Within 2 hours of the injection of emulsion, and then again 24 hours after the injection of emulsion, the pertussis toxin component of the kit was administered intraperitoneally. The pertussis toxin (lot #1008, Hooke Laboratories) was administered at 90 ng/dose for both injections and the volume of each injection was 0.1 mL.
Animals were scored daily starting from Day 7 to the end of the study. Scoring was performed blind, by a person unaware of both treatment and of previous scores for each mouse. In-between scores were assigned when the clinical signs fell between two above defined scores.
On Day 28, blood was collected from all mice into gel clot activator tubes and allowed to clot at room temperature for ˜30 minutes. Blood is then centrifuged at ˜10000 g for 5 minutes. Serum was transferred into Eppendorf tubes and stored at −80° C. until shipment to Quanterix™. Serum Neurofilament light (NF-L) protein levels were quantified using Simoa® NF-light Advantage kit, a digital immunoassay for the quantitative determination of NF-L in serum, plasma and CSF. The used antibodies (Uman Diagnostics, Umea Sweden) also cross react with murine, bovine and macaque NF-L epitopes and as such, this assay can be used for research with these species. All samples were tested in duplicate at a dilution factor of 40×. […]

The test system of experiment [5] is CD4+ T cells of patients with multiple sclerosis. Description: Surface expression of lytic marker Fas ligand (CD178) by flow cytometry. To be noted: CD4+ cell lines of patients MS017 (S9) and MS020 (S10). It counts as cell-based, human. Here is the method:
as §2, §3

The nature of experiment [6]: Oxidoreductase activity, fluorescent assay with FITC labelled peptides. It counts as biochemical. The following applies: reduction of self-quenched FITC labelled peptides, fluorescence. An excerpt:
The peptides of the invention comprise an MHC class II T-cell epitope or NKT cell epitope of MOG with a potential to trigger an immune reaction, and a modified oxidoreductase motif. The reducing activity of the motif sequence in the peptide can be assayed for its ability to reduce a sulfhydryl group such as in the insulin solubility assay wherein the solubility of insulin is altered upon reduction, or with a fluorescence-labelled substrate such as insulin. An example of such assay uses a fluorescent peptide and is described in Tomazzolli et al. (2006) Anal. Biochem. 350, 105-112. Two peptides with a FITC label become self-quenching when they covalently attached to each other via a disulfide bridge. Upon reduction by a peptide in accordance with the present invention, the reduced individual peptides become fluorescent again.
The oxidoreductase activity of the immunogenic peptides is determined using a fluorescent assay described in Tomazzolli et al. (2006) Anal. Biochem. 350, 105-112. Two peptides with a FITC label become self-quenching when they form a covalent disulfide bond. Upon reduction by a peptide in accordance with the present invention, the reduced individual FITC labelled peptides emit fluorescence again. The activity is expressed as the mean of duplicates. The results are expressed in Relative Fluorescent Units (RFU). […]

Experiment [7] addresses T1, soluble HLA-DRB1*03:01 human MHC II protein (human).
T1 construct: Soluble protein purchased from the Benaroya Research Institute; also called HLA-DR3; DR3
In words: soluble-phase competition vs biotin-tagged control peptide, Eu3+-streptavidin fluorescence (FIG. 2). Here is the method:
(§4) To test the binding of the immunogenic peptides to MHCII molecules, a soluble phase competition assay is performed. […] As binding approaches its equilibrium (18h), biotin-labelled peptide/MHC II complexes are captured, separated from unbound reagents, and quantitatively detected by time-resolved fluorescence (Eu³⁺ streptavidin, Perkin Elmer, Brussels, Belgium). […] Data are processed and plotted to ascertain dose-dependent binding properties of test peptides. All the tests are performed in triplicates.

The target in experiment [8] is T2, soluble HLA-DRB1*04:01 human MHC II protein (human).
T2 construct: Soluble protein purchased from the Benaroya Research Institute; also called HLA-DR4; DR4
Description: soluble-phase competition vs biotin-tagged control peptide, Eu3+-streptavidin fluorescence (FIG. 3). Here is the method:
as §4

The mark [9] stands for this setting: culture supernatant of MS017 (S12) and MS024 (S20) CD4+ cell lines, P4 vs S-WT epitope peptide.
[10] abbreviates: P4-specific CD4+ cell lines of patients MS024 (S20), MS017 (S9), MS026 (S13), MS028 (S11) and MS029 (S9).

For “KLHRTFDPHFLRVPSWKITLFK [short S-WT, reference compound]”, the “percentage of specific LCL apoptosis” value in experiment [1] is “increase”. For the same molecule, in experiment [2] (setting [9]), the “specific secretion of cytokine (IL-5)” value is reported as “specific secretion”. Further, the “specific induction of effector cells (CD3+CD4+CD154+)” value (from here on “specific induction of effector cells”) in experiment [3] (setting [10]) is reported as “specific induction”.
As to KHCPYCVRYFLRVPSWKITLFKK [P4], in experiment [1], the “percentage of specific LCL apoptosis” value is recorded as “increase”. Further, the “specific secretion of cytokine (IL-5)” value in experiment [2] (setting [9]) is given as “specific secretion”. For the same molecule, in experiment [2] (culture supernatant of MS017 (S15) CD4+ cell line, P4 vs C-WT epitope peptides), the “specific secretion of cytokine (IL-5)” value is recorded as “specific secretion”. Moreover, in experiment [2] (culture supernatant of MS017 (S15), MS024 (S20) and MS026 (S14) CD4+ cell lines), the “specific secretion of cytokine (IL-5)” value was “specific secretion”. In addition, the “specific induction of effector cells” value in experiment [3] (P4-specific CD4+ cell lines of patients MS017 (S14) and MS026 (S13)) was “specific induction”. Moreover, in experiment [3] (setting [10]), the “specific induction of effector cells” value is recorded as “specific induction”. Moreover, the “generation of peptide-specific CD4+ T cell lines from MS patients” value in experiment [3] (naive CD4+ T cells co-cultured with autologous mDC or LCL in presence of peptide) was “able to generate P4-specific CD4+ T cell lines from eight different MS patients”. Also, the “frequency of effector cells (CD3+CD4+CD154+)” value in experiment [3] (patients' CD4+ cell lines, overnight co-culture with autologous LCL with peptide vs no peptide) was “high frequency”. Besides, in experiment [4], the “AUC (area under the curve) of EAE scores” value was “statistically significant reduced”, the “MMS (mean maximal score)” value was “statistically significant reduced”, the disease onset entry is “postponed” and the “level of demyelination (anti-MBP stained spinal cord sections)” value was “reduced level”. The “level of inflammation (inflammatory foci, H&E stained spinal cord sections)” value in experiment [4] is on record as “reduced level”. For the same molecule, the “serum NF-L levels” value in experiment [4] (Day 28) is “statistically significant reduced”. Further, the end score entry in experiment [4] (EAE score 0-5) is “reduced”. For the same molecule, in experiment [5], the “effector cells expressing the lytic marker Fas ligand (CD3+CD4+CD154+FasL+)” value is “specific increase”.
In the case of HCHGCVRYFLRVPCWKI [P6], in experiment [6], the oxidoreductase activity entry is “displayed oxidoreductase activity”.
HCPYCVRYFLRVPCWKITLF (Synthetic) [P3 peptide HCPYCVRYFLRVPCWKITLF]: the binding result in experiment [7] and in experiment [8] was “binds” each time.

These data come from patent US20230340061A1, “PEPTIDES AND METHODS FOR THE TREATMENT OF MULTIPLE SCLEROSIS” (IMCYSE SA, priority 2020, published 2023).
